From ChEMBL document CHEMBL1130526, “Amide surrogates of matrix metalloproteinase inhibitors: Urea and sulfonamide mimics” (Bioorg Med Chem Lett, 1997) come the findings set out here.

Matrix metalloproteinase-9, sequence (P14780 whole entry): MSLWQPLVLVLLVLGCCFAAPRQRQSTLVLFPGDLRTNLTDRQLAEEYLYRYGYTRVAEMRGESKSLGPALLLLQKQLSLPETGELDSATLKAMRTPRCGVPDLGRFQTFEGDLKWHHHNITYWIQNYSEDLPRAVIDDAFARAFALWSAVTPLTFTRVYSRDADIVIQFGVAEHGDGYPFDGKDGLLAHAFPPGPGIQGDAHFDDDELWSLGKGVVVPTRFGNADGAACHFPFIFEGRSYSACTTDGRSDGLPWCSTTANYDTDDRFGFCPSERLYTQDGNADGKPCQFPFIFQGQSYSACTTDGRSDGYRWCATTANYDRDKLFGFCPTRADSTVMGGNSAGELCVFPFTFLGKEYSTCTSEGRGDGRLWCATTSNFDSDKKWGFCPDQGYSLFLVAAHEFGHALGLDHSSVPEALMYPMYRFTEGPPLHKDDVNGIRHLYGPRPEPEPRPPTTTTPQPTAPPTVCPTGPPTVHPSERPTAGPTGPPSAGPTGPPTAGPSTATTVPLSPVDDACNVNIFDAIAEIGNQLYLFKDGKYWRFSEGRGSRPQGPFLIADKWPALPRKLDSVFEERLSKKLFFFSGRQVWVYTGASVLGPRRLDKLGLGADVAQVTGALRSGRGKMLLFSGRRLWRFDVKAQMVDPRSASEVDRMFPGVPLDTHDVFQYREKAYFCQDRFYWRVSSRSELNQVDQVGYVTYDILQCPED

The first assay has as its target Matrix metalloproteinase-9 (Homo sapiens, UniProt P14780). The experiment in a line: Inhibition of Matrix metalloprotease-9.
As a reminder, the Ki is a dissociation constant, usually derived from enzyme kinetics or from competition with a known ligand. As to `CNC(=O)[C@H](Cc1ccc(OC)cc1)NC(=O)[C@@H](CC(=O)O)CC(C)C`, the affinity corresponds to a Ki of 0.184 µM. That is a sub-micromolar value.

Take `CCCCCCC(CC(=O)NO)S(=O)(=O)N[C@@H](Cc1ccc(OC)cc1)C(=O)NC` (stereo not given in full): the inhibitory constant (Ki) came out at 0.21 µM. This Ki and that of the compound before are within 1.5-fold of each other.

Consider `CNC(=O)[C@H](Cc1ccc(OC)cc1)NS(=O)(=O)C(CCc1ccccc1)CC(=O)O` (stereo not given in full), for which affinity was put at a Ki of 9.9 µM.

Compound `CCCCCCC(CC(=O)O)S(=O)(=O)N[C@@H](Cc1ccc(OC)cc1)C(=O)NC` (stereo not given in full) came in with a Ki of 0.29 µM.

The compound `CNC(=O)[C@H](Cc1ccc(OC)cc1)NS(=O)(=O)C(CC(=O)NO)CC(C)C` (stereo not given in full) showed a Ki of 0.62 µM.

`CNC(=O)[C@H](Cc1ccc(OC)cc1)NS(=O)(=O)C(CCc1ccccc1)CC(=O)NO` (stereo not given in full) showed a Ki of 1.5 µM. This Ki is about 2.4-fold higher than that of the compound before.

For `CNC(=O)[C@H](Cc1ccc(OC)cc1)NC(=O)[C@@H](CC(=O)NO)CC(C)C`, the Ki was < 0.01 µM.

As for `CNC(=O)[C@H](Cc1ccc(OC)cc1)NS(=O)(=O)C(CC(=O)O)CC(C)C` (stereo not given in full), the Ki worked out at 19.2 µM.

In the next assay the target is 72 kDa type IV collagenase (Homo sapiens, UniProt P08253). The experiment in a line: Inhibition of Matrix metalloprotease-2 (MMP-2).
72 kDa type IV collagenase, sequence (P08253 whole entry): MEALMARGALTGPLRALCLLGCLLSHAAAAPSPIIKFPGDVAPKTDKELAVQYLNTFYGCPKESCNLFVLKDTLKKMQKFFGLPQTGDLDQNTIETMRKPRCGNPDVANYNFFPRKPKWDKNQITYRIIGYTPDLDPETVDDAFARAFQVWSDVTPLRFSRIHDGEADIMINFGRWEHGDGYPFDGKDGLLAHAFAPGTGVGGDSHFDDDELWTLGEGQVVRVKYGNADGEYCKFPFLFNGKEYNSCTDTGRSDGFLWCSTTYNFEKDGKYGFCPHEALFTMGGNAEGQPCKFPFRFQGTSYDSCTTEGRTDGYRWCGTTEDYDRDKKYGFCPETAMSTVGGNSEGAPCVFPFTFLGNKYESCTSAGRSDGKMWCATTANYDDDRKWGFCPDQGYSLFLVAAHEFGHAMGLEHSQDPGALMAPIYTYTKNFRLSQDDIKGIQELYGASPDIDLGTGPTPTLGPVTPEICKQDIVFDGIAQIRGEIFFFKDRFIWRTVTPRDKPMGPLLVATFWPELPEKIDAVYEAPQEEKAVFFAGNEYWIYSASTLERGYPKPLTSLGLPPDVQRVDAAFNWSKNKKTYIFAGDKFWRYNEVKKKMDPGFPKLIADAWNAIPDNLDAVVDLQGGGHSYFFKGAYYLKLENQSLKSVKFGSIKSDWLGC
For the compound `CNC(=O)[C@H](Cc1ccc(OC)cc1)NC(=O)[C@@H](CC(=O)O)CC(C)C`, the Ki turned out to be 0.86 µM.

Compound `CCCCCCC(CC(=O)NO)S(=O)(=O)N[C@@H](Cc1ccc(OC)cc1)C(=O)NC` (stereo not given in full) yielded a Ki of 0.43 µM. This Ki is about 2-fold lower than that of the compound before.

With `CNC(=O)[C@H](Cc1ccc(OC)cc1)NS(=O)(=O)C(CCc1ccccc1)CC(=O)O` (stereo not given in full), the Ki was 5.3 µM. Compared with the last compound, the Ki is about 12-fold higher.

Consider `CCCCCCC(CC(=O)O)S(=O)(=O)N[C@@H](Cc1ccc(OC)cc1)C(=O)NC` (stereo not given in full), for which affinity was put at a Ki of 1.3 µM.

`CNC(=O)[C@H](Cc1ccc(OC)cc1)NS(=O)(=O)C(CC(=O)NO)CC(C)C` (stereo not given in full) displayed a Ki of 0.62 µM.

`CNC(=O)[C@H](Cc1ccc(OC)cc1)NS(=O)(=O)C(CCc1ccccc1)CC(=O)NO` (stereo not given in full) yielded a Ki of 0.55 µM.

In the case of `CNC(=O)[C@H](Cc1ccc(OC)cc1)NS(=O)(=O)C(CC(=O)O)CC(C)C` (stereo not given in full), the Ki was 3 µM.

In another assay the target is T1, Interstitial collagenase (Homo sapiens, UniProt P03956).
T1 sequence (P03956 whole entry): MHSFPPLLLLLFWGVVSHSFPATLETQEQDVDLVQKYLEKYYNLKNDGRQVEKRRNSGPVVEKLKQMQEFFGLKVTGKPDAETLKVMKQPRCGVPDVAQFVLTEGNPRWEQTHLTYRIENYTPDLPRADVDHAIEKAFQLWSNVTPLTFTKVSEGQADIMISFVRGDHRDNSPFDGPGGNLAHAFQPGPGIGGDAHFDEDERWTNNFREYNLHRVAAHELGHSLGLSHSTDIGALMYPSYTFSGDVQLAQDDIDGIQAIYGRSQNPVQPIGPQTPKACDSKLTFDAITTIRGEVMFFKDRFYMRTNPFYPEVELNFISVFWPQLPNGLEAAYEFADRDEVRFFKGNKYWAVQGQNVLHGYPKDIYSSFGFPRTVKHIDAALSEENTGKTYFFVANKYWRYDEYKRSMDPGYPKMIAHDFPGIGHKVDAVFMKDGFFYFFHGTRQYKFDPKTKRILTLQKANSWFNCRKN
The experiment in a line: Inhibition of Matrix metalloprotease-1 (MMP-1).
In turn, `CNC(=O)[C@H](Cc1ccc(OC)cc1)NC(=O)[C@@H](CC(=O)O)CC(C)C` registered a Ki of 0.336 µM.

The compound `CCCCCCC(CC(=O)NO)S(=O)(=O)N[C@@H](Cc1ccc(OC)cc1)C(=O)NC` (stereo not given in full) gave a Ki of 2.3 µM.

The compound `CNC(=O)[C@H](Cc1ccc(OC)cc1)NS(=O)(=O)C(CCc1ccccc1)CC(=O)O` (stereo not given in full) showed a Ki of 22.4 µM.

Turning to `CCCCCCC(CC(=O)O)S(=O)(=O)N[C@@H](Cc1ccc(OC)cc1)C(=O)NC` (stereo not given in full), the Ki was 11.2 µM. This Ki lies about 2-fold lower than the previous one.

In the case of `CNC(=O)[C@H](Cc1ccc(OC)cc1)NS(=O)(=O)C(CC(=O)NO)CC(C)C` (stereo not given in full), the affinity, expressed as Ki, was 0.77 µM.

As for `CNC(=O)[C@H](Cc1ccc(OC)cc1)NS(=O)(=O)C(CCc1ccccc1)CC(=O)NO` (stereo not given in full), the Ki was found to be 0.64 µM.

For the compound `CNC(=O)[C@H](Cc1ccc(OC)cc1)NS(=O)(=O)C(CC(=O)O)CC(C)C` (stereo not given in full), the Ki is > 50 µM.

Another assay concerns the target T2, Stromelysin-1 (Homo sapiens, UniProt P08254). The experiment in a line: Inhibition of Matrix metalloprotease-3 (MMP-3) at 50 uM.
Target sequence in this assay (P08254 100-477 limits assumed): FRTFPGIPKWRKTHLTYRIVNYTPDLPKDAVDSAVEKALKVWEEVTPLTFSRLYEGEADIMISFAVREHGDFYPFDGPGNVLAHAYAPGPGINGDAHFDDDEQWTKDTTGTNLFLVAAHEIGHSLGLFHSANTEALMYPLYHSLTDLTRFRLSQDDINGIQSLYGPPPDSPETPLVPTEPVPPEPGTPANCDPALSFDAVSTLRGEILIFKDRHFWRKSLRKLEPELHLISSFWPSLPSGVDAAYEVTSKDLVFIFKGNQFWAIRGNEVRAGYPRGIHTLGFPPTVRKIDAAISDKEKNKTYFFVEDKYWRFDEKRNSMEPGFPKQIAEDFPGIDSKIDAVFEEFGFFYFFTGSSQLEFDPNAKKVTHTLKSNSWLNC
By inhibition is commonly meant the change of the read-out against control, counted positive when it falls. `CNC(=O)[C@H](Cc1ccc(OC)cc1)NS(=O)(=O)C(CCc1ccccc1)CC(=O)O` (stereo not given in full) yielded an inhibition of 10%.

As to `CCCCCCC(CC(=O)O)S(=O)(=O)N[C@@H](Cc1ccc(OC)cc1)C(=O)NC` (stereo not given in full), the inhibition worked out at 10%.

The target in another assay is T2, Stromelysin-1. The experiment in a line: Inhibition of Matrix metalloprotease-3 (MMP-3).
Target sequence in this assay (P08254 whole entry): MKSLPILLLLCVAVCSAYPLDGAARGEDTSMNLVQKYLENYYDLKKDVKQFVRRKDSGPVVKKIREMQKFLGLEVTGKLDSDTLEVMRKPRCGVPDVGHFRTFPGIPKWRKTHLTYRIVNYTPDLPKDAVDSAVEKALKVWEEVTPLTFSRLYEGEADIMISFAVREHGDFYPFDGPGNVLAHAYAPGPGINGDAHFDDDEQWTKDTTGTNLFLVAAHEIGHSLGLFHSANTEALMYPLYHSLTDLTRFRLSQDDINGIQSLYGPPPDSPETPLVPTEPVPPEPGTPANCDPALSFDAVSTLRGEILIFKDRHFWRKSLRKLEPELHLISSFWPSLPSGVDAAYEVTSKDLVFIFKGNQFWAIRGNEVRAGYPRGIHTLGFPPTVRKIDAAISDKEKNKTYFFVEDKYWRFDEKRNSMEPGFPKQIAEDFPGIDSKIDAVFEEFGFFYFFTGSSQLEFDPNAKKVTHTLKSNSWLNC
On to `CNC(=O)[C@H](Cc1ccc(OC)cc1)NC(=O)[C@@H](CC(=O)O)CC(C)C`, for which the Ki amounted to 29.4 µM.

The compound `CCCCCCC(CC(=O)NO)S(=O)(=O)N[C@@H](Cc1ccc(OC)cc1)C(=O)NC` (stereo not given in full) came in with a Ki of 4 µM.

For `CNC(=O)[C@H](Cc1ccc(OC)cc1)NS(=O)(=O)C(CC(=O)NO)CC(C)C` (stereo not given in full), the affinity corresponds to a Ki of 4.1 µM. This Ki and that of the compound before are within 1.5-fold of each other.

`CNC(=O)[C@H](Cc1ccc(OC)cc1)NS(=O)(=O)C(CCc1ccccc1)CC(=O)NO` (stereo not given in full) displayed a Ki of 2.2 µM.

Regarding `CNC(=O)[C@H](Cc1ccc(OC)cc1)NC(=O)[C@@H](CC(=O)NO)CC(C)C`, the Ki is < 0.01 µM.

Compound `CNC(=O)[C@H](Cc1ccc(OC)cc1)NS(=O)(=O)C(CC(=O)O)CC(C)C` (stereo not given in full) had a Ki of 19.1 µM.
